Laboratory results published in patent publication US8034940B2, “Modulators of glucocorticoid receptor, AP-1, and/or NF-κB activity and use thereof” (Bristol-Myers Squibb Company, priority 2006, dated 2011).
Like-named read-outs stand apart in the source and are kept apart here.

Test system: AP-1 induced transcriptional activity
Assay: Cellular Transrepressional Assay (AP-1 luciferase reporter, PMA-activated A549 cells)
Type: cell-based
Details: for AP-1 Max % inh (Cellular Transrepression Assay) / Emax: maximum inhibition; for Emax: A549, 7 h, read-out: AP-1 Max % inh (Cellular Transrepression Assay)
Procedure, shortened: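 Compounds tested from 0.1 nM to 40 μM during a 7 h PMA (10 ng/ml) stimulation of A549 cells stably transfected with 7× AP-1 sites driving luciferase. Repression expressed as % reduction of PMA-induced luminescence; EC50 by curve fitting.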

[1] = Homo sapiens, Cellular Transrepression Assay
[2] = Homo sapiens, A549, Cellular Transrepression Assay

Row | EC50 (Cellular Transrepression Assay) [nM] | EC50 [2] [nM] | SMILES | AP-1 Max % inh (Cellular Transrepression Assay) (Cellular Transrepression Assay) [%] | Emax [1] [%] | EC50 (Homo sapiens, A549, read-out: AP-1 EC50, nM (Cellular Transrepression Assay)) [nM]
1 | 8.93 |  | CC(C)(C(=O)Nc1nncs1)[C@H]1c2ccccc2Oc2nc(-c3ccc(C(=O)N4CCOCC4)c(F)c3)ccc21 [Example 327] | 59.45 |  | 
2 | 18.6 |  | CC(C)(C(=O)Nc1nncs1)[C@H]1c2ccccc2Oc2nc(-c3ccc(C(=O)N4CCOCC4)c(Cl)c3)ccc21 [Example 328] | 66.06 |  | 
3 | 583 |  | CC(C)N(C)C(=O)c1ccc(-c2ccc3c(n2)Oc2ccccc2[C@@H]3C(C)(C)C(=O)Nc2nncs2)cc1F [Example 329] | 40.81 |  | 
4 |  | 21.9 | COC[C@H]1CCCN1C(=O)c1ccc(-c2ccc3c(n2)Oc2ccccc2[C@@H]3C(C)(C)C(=O)Nc2nncs2)cc1Cl [Example 330] |  | 60.6 | 
5 |  | 33.7 | CC(C)(C(=O)Nc1nncs1)[C@H]1c2ccccc2Oc2nc(-c3ccc(C(=O)N4CCC[C@@H]4CO)cc3)ccc21 [Example 331] |  | 36.3 | 
6 | 24.7 |  | CC(C)(C(=O)Nc1nncs1)[C@H]1c2ccccc2Oc2nc(-c3ccc(C(=O)N4CCCC4)c(F)c3)ccc21 [Example 333] | 52.71 |  | 
7 |  | 3.36 | CC(C)(C(=O)Nc1nncs1)[C@H]1c2ccccc2Oc2nc(-c3ccc(C(=O)N4CCC(F)(F)CC4)c(F)c3)ccc21 [Example 334] |  | 36.2 | 
8 |  | 37.9 | CC(C)(C(=O)Nc1nncs1)[C@H]1c2ccccc2Oc2nc(-c3ccc(C(=O)N4CCC(F)(F)C4)c(F)c3)ccc21 [Example 335] |  | 56 | 
9 | 20.4 |  | CCN(C)C(=O)c1ccc(-c2ccc3c(n2)Oc2ccccc2[C@@H]3C(C)(C)C(=O)Nc2nncs2)cc1F [Example 336] | 55.80 |  | 
10 |  | 103 | CC(C)(C(=O)Nc1nncs1)[C@H]1c2ccccc2Oc2nc(-c3ccc(C(=O)N4CC(F)(F)C(F)(F)C4)c(F)c3)ccc21 [Example 337] |  | 51.5 | 
11 |  | 185 | CC(C)(C(=O)Nc1nncs1)[C@H]1c2ccccc2Oc2nc(-c3ccc(C(=O)N4CCC(F)(F)CC4)c(Cl)c3)ccc21 [Example 339] |  | 38.4 | 
12 |  | 54.8 | CC(C)(C(=O)Nc1nncs1)[C@H]1c2ccccc2Oc2nc(-c3ccc(C(=O)N4CCC(F)(F)C4)c(Cl)c3)ccc21 [Example 340] |  | 67.6 | 
13 | 14.8 |  | CC(C)(C(=O)Nc1nncs1)[C@H]1c2ccccc2Oc2nc(-c3ccc(C(=O)N4CCCC4)c(Cl)c3)ccc21 [Example 341] | 50.27 |  | 
14 | 18.4 |  | CCCN(C)C(=O)c1ccc(-c2ccc3c(n2)Oc2ccccc2[C@@H]3C(C)(C)C(=O)Nc2nncs2)cc1F [Example 343] | 29.68 |  | 
15 |  | 39.6 | CC(C)(C(=O)Nc1nncs1)[C@H]1c2ccccc2Oc2nc(-c3ccc(C(=O)N4CCC[C@@H]4CO)c(F)c3)ccc21 [Example 344] |  | 44.5 | 
16 | 124 |  | CCN(C)C(=O)c1ccc(-c2ccc3c(n2)Oc2ccccc2[C@@H]3C(C)(C)C(=O)Nc2nncs2)cc1Cl [Example 345] | 54.25 |  | 
17 |  | 300 | CNC(=O)c1ccc(-c2ccc3c(n2)Oc2ccccc2[C@@H]3C(C)(C)C(=O)Nc2nncs2)cc1 [Example 348] |  | 34.4 | 
18 |  | 480 | CC(C)(C(=O)NC#N)[C@H]1c2ccccc2Oc2nc(-c3ccc(C(=O)N4CCCC4)c(F)c3)ccc21 [Example 398] |  | 50 | 
19 |  | 364 | CC(C)(C(=O)Nc1nncs1)[C@H]1c2ccccc2Oc2nc(C3=CCN(C(=O)N4CCCC4)CC3)ccc21 [Example 408] |  | 24.1 | 
20 |  | 53.3 | CC(C)(C(=O)Nc1ncc(C#N)s1)[C@H]1c2ccccc2Oc2nc(-c3ccc(C(=O)N4CCCC4)c(F)c3)ccc21 [Example 410] |  | 48.1 | 
21 |  | 161 | CC(C)(C(=O)Nc1ncc([N+](=O)[O-])s1)[C@H]1c2ccccc2Oc2nc(-c3ccc(C(=O)N4CCCC4)c(F)c3)ccc21 [Example 411] |  | 58.5 | 
22 |  | 67.3 | CCOC(=O)c1nnc(NC(=O)C(C)(C)[C@H]2c3ccccc3Oc3nc(-c4ccc(C(=O)N5CCCC5)c(F)c4)ccc32)s1 [Example 417] |  | 54.1 | 
23 |  | 82.1 | CC(C)(C(=O)Nc1nnc(C(N)=O)s1)[C@H]1c2ccccc2Oc2nc(-c3ccc(C(=O)N4CCCC4)c(F)c3)ccc21 [Example 418] |  | 29.1 | 
24 |  | 71.9 | CNC(=O)c1nnc(NC(=O)C(C)(C)[C@H]2c3ccccc3Oc3nc(-c4ccc(C(=O)N5CCCC5)c(F)c4)ccc32)s1 [Example 419] |  | 46.6 | 

More lines, now with the values behind:

Row | SMILES | EC50 (Cellular Transrepression Assay) [nM] | EC50 [2] [nM] | AP-1 Max % inh (Cellular Transrepression Assay) (Cellular Transrepression Assay) [%] | Emax [1] [%] | EC50 (Homo sapiens, A549, read-out: AP-1 EC50, nM (Cellular Transrepression Assay)) [nM]
25 | CC(C)(C(=O)Nc1nncs1)[C@H]1c2ccccc2Oc2nc(-c3ccc(C(=O)NC4CC4)cc3)ccc21 [Example 350] |  | 520 |  | 45.1 | 
26 | Cc1csc(NC(=O)C(C)(C)C2c3ccccc3Oc3nc(-c4ccc(C(=O)N(C)C)cc4)ccc32)n1 (stereo not drawn) [Example 363] | 247 |  | 47.74 |  | 
27 | Cc1cnc(NC(=O)C(C)(C)C2c3ccccc3Oc3nc(-c4ccc(C(=O)N(C)C)cc4)ccc32)s1 (stereo not drawn) [Example 364] | 244 |  | 58.90 |  | 
28 | CC(C)(C(=O)Nc1nncs1)[C@H]1c2ccccc2Oc2cc(OC(=O)NCc3ccccc3)ccc21 [Example 369, (s)-9-(1-(1,3,4-thiadiazole-2ylamino)-2-methyl-1-oxopropan-2-yl)-9H-xanthen-3-yl benzylcarbamate] |  | 33 |  | 55.5 | 
29 | CCCCNC(=O)Oc1ccc2c(c1)Oc1ccccc1[C@@H]2C(C)(C)C(=O)Nc1nncs1 [Example 370] |  | 34.2 |  | 57.6 | 
30 | CCNC(=O)Oc1ccc2c(c1)Oc1ccccc1[C@@H]2C(C)(C)C(=O)Nc1nncs1 [Example 371] |  | 22.3 |  | 48.7 | 
31 | CC(C)(C(=O)Nc1nncs1)[C@H]1c2ccccc2Oc2cc(OC(=O)NCc3ccco3)ccc21 [Example 372] |  | 28.3 |  | 52.4 | 
32 | CC(C)(C(=O)Nc1nncs1)C1c2ccccc2Oc2cc(OC(=O)NC3CCCCC3)ccc21 (stereo not drawn) [Example 373] | 32.8 |  |  | 45.6 | 
33 | CCCCCCCCNC(=O)Oc1ccc2c(c1)Oc1ccccc1C2C(C)(C)C(=O)Nc1nncs1 (stereo not drawn) [Example 374] |  | 30.9 |  | 50.9 | 
34 | CC(C)(C(=O)Nc1nncs1)C1c2ccccc2Oc2cc(OC(=O)NCCc3ccccc3)ccc21 (stereo not drawn) [Example 375] | 82.8 |  | 51.24 |  | 
35 | CC(C)(C(=O)Nc1nncs1)C1c2ccccc2Oc2cc(OC(=O)NCCc3cccs3)ccc21 (stereo not drawn) [Example 376] | 34.4 |  | 45.09 |  | 
36 | CC(C)(C(=O)Nc1nncs1)C1c2ccccc2Oc2cc(OC(=O)NCc3ccc(F)cc3)ccc21 (stereo not drawn) [Example 377] | 32.7 |  | 49.10 |  | 
37 | CC(C)(C(=O)Nc1nncs1)C1c2ccccc2Oc2cc(OC(=O)NCc3ccc(Cl)c(Cl)c3)ccc21 (stereo not drawn) [Example 379] | 74 |  | 51.21 |  | 
38 | CC(C)(C(=O)Nc1nncs1)C1c2ccccc2Oc2cc(OC(=O)NCCCc3ccccc3)ccc21 (stereo not drawn) [Example 380] | 101 |  | 53.58 |  | 
39 | CC(C)(C(=O)Nc1nncs1)C1c2ccccc2Oc2cc(OC(=O)NCCc3ccc(F)cc3)ccc21 (stereo not drawn) [Example 381] | 45.2 |  | 52.00 |  | 
40 | CC(C)(C)NC(=O)Oc1ccc2c(c1)Oc1ccccc1C2C(C)(C)C(=O)Nc1nncs1 (stereo not drawn) [Example 382] |  | 206 |  | 47.2 | 
41 | CCC(C)NC(=O)Oc1ccc2c(c1)Oc1ccccc1C2C(C)(C)C(=O)Nc1nncs1 (stereo not drawn) [Example 383] | 46.3 |  | 41.78 |  | 
42 | COc1ccc(CCNC(=O)Oc2ccc3c(c2)Oc2ccccc2C3C(C)(C)C(=O)Nc2nncs2)cc1 (stereo not drawn) [Example 384] | 61.9 |  | 42.30 |  | 
43 | CC(C)(C(=O)Nc1nncs1)C1c2ccccc2Oc2cc(OC(=O)NC3CCCCC3)ccc21 (stereo not drawn) [Example 385] | 96.5 |  | 28.99 |  | 
44 | CNC(=O)Oc1ccc2c(c1)Oc1ccccc1C2C(C)(C)C(=O)Nc1nncs1 (stereo not drawn) [Example 386] |  |  |  | 34.3 | 89
45 | CCNC(=O)Oc1ccc2c(c1)Oc1ccccc1C2C(C)(C)C(=O)Nc1nncs1 (stereo not drawn) [Example 387] |  | 82 |  | 52.5 | 
46 | CCCCNC(=O)Oc1ccc2c(c1)Oc1ccccc1C2C(C)(C)C(=O)Nc1nncs1 (stereo not drawn) [Example 388] |  | 34.2 |  | 57.6 | 
47 | CC(C)(C(=O)Nc1nncs1)C1c2ccccc2Oc2cc(OC(=O)NCc3ccccc3)ccc21 (stereo not drawn) [Example 389] | 50.5 |  | 55.20 |  | 
48 | COc1ccc(NC(=O)Oc2ccc3c(c2)Oc2ccccc2C3C(C)(C)C(=O)Nc2nncs2)cc1 (stereo not drawn) [Example 390] | 42.8 |  | 56.63 |  | 
49 | COc1ccc(CNC(=O)Oc2ccc3c(c2)Oc2ccccc2C3C(C)(C)C(=O)Nc2nncs2)cc1 (stereo not drawn) [Example 391] | 52 |  | 44.08 |  | 
50 | CC(C)(C(=O)Nc1nncs1)C1c2ccccc2Oc2cc(OC(=O)NCC3CCCCC3)ccc21 (stereo not drawn) [Example 392] | 49.7 |  | 44.82 |  | 
51 | CC(C)(C(=O)Nc1nncs1)C1c2ccccc2Oc2cc(OC(=O)NCc3ccco3)ccc21 (stereo not drawn) [Example 393] | 53.4 |  | 43.80 |  | 
52 | CC(C)(O)c1ccc(-c2ccc3c(n2)Oc2ccccc2[C@@H]3C(C)(C)C(=O)NC#N)cc1 [Example 399] |  | 333 |  | 69.3 | 
53 | CC(C)(C(=O)Nc1nncs1)[C@H]1c2ccccc2Oc2nc(NC(=O)NCCN3CCCC3)ccc21 [Example 401] |  | 778 |  | 35.1 | 
54 | CC(C)(O)c1ccc(-c2ccc3c(n2)Oc2ccccc2[C@@H]3C(C)(C)C(=O)Nc2nncs2)cc1 [Example 404] |  | 22.5 |  | 70.6 | 
